Legend:
Meloidogyne incognita = Meloidogyne incognita test; format: in vivo; details: application rate 20 ppm; lettuce in sand with egg/larvae suspension
Procedure: Meloidogyne Incognita Test
Solvent: 80.0 parts by weight of acetone
Vessels are filled with sand, active ingredient solution, Meloidogyne incognita egg/larvae suspension and lettuce seeds. The lettuce seeds germinate and the plants develop. Galls develop on the roots.
After the desired time, the nematicidal action is determined by the gall formation in %. 100% means that no galls were found; 0% means that the number of galls on the treated plants corresponds to the untreated control.

Myzus persicae = assay: Myzus test (spray treatment); format: in vivo; details: foliar, application rate 500 g/ha, sprayed Chinese cabbage leaf discs, all stages of green peach aphid, read-out: efficacy in % (aphids killed)
Procedure: Solvent 78 parts by weight of acetone • • 1.5 parts by weight of dimethylformamide
Emulsifier: 0.5 part by weight of alkylaryl polyglycol ether
To prepare an appropriate active ingredient preparation, 1 part by weight of active ingredient is mixed with the stated amounts of solvent and emulsifier, and the concentrate is diluted with emulsifier-containing water to the desired concentration.

[1] = Determination of the log P values (formic acid method)
Procedure: 1) Description of Method for Determination of the log P Values (Formic Aid Method)
Eluents for determination in the acidic range (pH 3.4):
Eluent A: acetonitrile+1 ml of formic acid/liter. Eluent B: water+0.9 ml of formic acid/liter.
The lambda max values were determined in the maxima of the chromatographic signals using the UV spectra from 200 nm to 400 nm.

[2] = tested on: Myzus persicae organophosphate/carbamate resistant strain; assay: Myzus spray test; details: application rate 100 ppm; after 6 days; sprayed aubergine plants; 100% = all insects killed
[3] = reverse-phase C18 HPLC column, pH 3.4, logP (HCOOH), final compounds table, HPLC reverse-phase C18, acidic range pH 3.4, 55° C.
[4] = reverse-phase C18 HPLC column, pH 3.4, log P (HCOOH), preparation examples, HPLC-MS

## CC(C)(C)S(=O)(=O)NC(=O)c1cccc(-c2cnc(-c3cncc(F)c3)s2)n1 [Compound 56]
Meloidogyne incognita
  efficacy in % (nematicidal action by gall formation): 100%
Myzus persicae
  pest or weed control at 500 g/ha: 100%
[1]; [3]
  chromatographic logP: 2.77

## O=C(NS(=O)(=O)c1cccs1)c1cccc(-c2nnc(-c3cncc(F)c3)s2)n1 [Compound 75]
Meloidogyne incognita
  efficacy in % (nematicidal action by gall formation): 100%
Myzus persicae
  pest or weed control at 500 g/ha: 100%
[1]; [3]
  chromatographic logP: 2.38

## CCS(=O)(=O)NC(=O)c1cccc(-c2cnn(-c3cncnc3)c2)n1 [Compound 7]
Myzus persicae
  pest or weed control at 500 g/ha: 100%
[1]; pH 3.4, logP (HCOOH)
  chromatographic logP: 1.63

## CS(=O)(=O)NC(=O)c1csc(-c2cnn(-c3cncc(F)c3)c2)n1 [Compound 37]
Myzus persicae
  pest or weed control at 500 g/ha: 90%
[1]; pH 3.4, logP (HCOOH)
  chromatographic logP: 1.66

## O=C(NS(=O)(=O)C1CC1)c1cccc(-c2cnn(-c3cncc(F)c3)c2)n1 [Compound 29]
Myzus persicae
  pest or weed control at 500 g/ha: 100%
[1]; [3]
  chromatographic logP: 2.35

## CCS(=O)(=O)NC(=O)c1cccc(-c2cnn(-c3cccnc3)c2)n1 [Compound 25]
Myzus persicae
  pest or weed control at 500 g/ha: 100%
[1]; pH 3.4, logP (HCOOH)
  chromatographic logP: 1.77

## O=C(NS(=O)(=O)c1ccccc1)c1cccc(-c2cnn(-c3cccnc3)c2)n1 [Compound 32]
Myzus persicae
  pest or weed control at 500 g/ha: 90%
[1]; [3]
  chromatographic logP: 2.26

## CS(=O)(=O)NC(=O)c1cccc(-c2nnc(-c3cncc(F)c3)s2)n1 [Compound 3, 6-[5-(5-Fluoropyridin-3-yl)-1,3,4-thiadiazol-2-yl]-N-(methylsulphonyl)pyridine-2-carboxamide]
Myzus persicae
  pest or weed control at 500 g/ha: 100%
[1]; pH 3.4, log P (HCOOH)
  chromatographic logP: 1.79
[1]; pH 3.4, logP (HCOOH)
  chromatographic logP: 1.79

## O=C(NS(=O)(=O)Cc1ccccc1)c1cccc(-c2cnn(-c3cncc(F)c3)c2)n1 [Compound 33]
Myzus persicae
  pest or weed control at 500 g/ha: 100%
[1]; [3]
  chromatographic logP: 2.89

## CC(=O)NS(=O)(=O)c1cccc(-c2cnc(-c3cncc(F)c3)s2)n1 [Compound 67]
Myzus persicae
  pest or weed control at 500 g/ha: 100%
[1]; [3]
  chromatographic logP: 1.72

## O=C(NS(=O)(=O)C(F)F)c1cccc(-c2cnc(-c3cncc(F)c3)s2)n1 [Compound 11]
Myzus persicae
  pest or weed control at 500 g/ha: 100%
[1]; [3]
  chromatographic logP: 1.79

## CC(=O)NS(=O)(=O)c1cccc(-c2cnn(-c3cccnc3)c2)n1 [Compound 41, N-({6-[1-(Pyridin-3-yl)-1H-pyrazol-4-yl]pyridin-2-yl}sulphonyl)acetamide]
Myzus persicae
  pest or weed control at 500 g/ha: 100%
[1]; pH 3.4, log P (HCOOH)
  chromatographic logP: 1.17
[1]; pH 3.4, logP (HCOOH)
  chromatographic logP: 1.17

## CCS(=O)(=O)NC(=O)c1cccc(-c2cnn(-c3cncc(F)c3)c2)n1 [Compound 26]
Myzus persicae
  pest or weed control at 500 g/ha: 100%
[1]; pH 3.4, logP (HCOOH)
  chromatographic logP: 2.21

## CC(C)S(=O)(=O)NC(=O)c1cccc(-c2nnc(-c3cncc(F)c3)s2)n1 [Compound 72]
Myzus persicae
  pest or weed control at 500 g/ha: 100%
[1]; pH 3.4, logP (HCOOH)
  chromatographic logP: 2.31

## CS(=O)(=O)NC(=O)c1nc(-c2cnn(-c3cncc(F)c3)c2)cs1 [Compound 46, 4-[1-(5-Fluoropyridin-3-yl)-1H-pyrazol-4-yl]-N-(methylsulphonyl)-1,3-thiazole-2-carboxamide]
Myzus persicae
  pest or weed control at 500 g/ha: 100%
[1]; [4]
  chromatographic logP: 1.68
[1]; [3]
  chromatographic logP: 1.68

## CS(=O)(=O)NC(=O)c1csc(-c2cnn(-c3cccnc3)c2)n1 [Compound 36, N-(Methylsulphonyl)-2-[1-(pyridin-3-yl)-1H-pyrazol-4-yl]-1,3-thiazole-4-carboxamide]
Myzus persicae
  pest or weed control at 500 g/ha: 100%
[1]; pH 3.4, log P (HCOOH)
  chromatographic logP: 1.25
[1]; pH 3.4, logP (HCOOH)
  chromatographic logP: 1.25

## CN(C)S(=O)(=O)NC(=O)c1cccc(-c2cnc(-c3cccnc3)s2)n1 [Compound 66]
Myzus persicae
  pest or weed control at 500 g/ha: 100%
[1]; pH 3.4, logP (HCOOH)
  chromatographic logP: 2.01

## CS(=O)(=O)NC(=O)c1nc(-c2cnn(-c3cccnc3)c2)cs1 [Compound 45]
Myzus persicae
  pest or weed control at 500 g/ha: 90%
[1]; pH 3.4, logP (HCOOH)
  chromatographic logP: 1.16

## CC(C1CC1)N(C)S(=O)(=O)NC(=O)c1cccc(-c2cnc(-c3cncc(F)c3)s2)n1 (centres unmarked) [Compound 61]
Myzus persicae
  pest or weed control at 500 g/ha: 100%
[1]; pH 3.4, logP (HCOOH)
  chromatographic logP: 3.47

## O=C(NS(=O)(=O)c1ccc(Cl)s1)c1cccc(-c2nnc(-c3cncc(F)c3)s2)n1 [Compound 78]
Meloidogyne incognita
  efficacy in % (nematicidal action by gall formation): 100%
Myzus persicae
  pest or weed control at 500 g/ha: 100%
[1]; [3]
  chromatographic logP: 3.08

## Cc1nc(-c2cncc(F)c2)sc1-c1cc(C(=O)NS(C)(=O)=O)nn1C [Compound 64]
Myzus persicae
  pest or weed control at 500 g/ha: 100%
[1]; pH 3.4, logP (HCOOH)
  chromatographic logP: 1.84

## CS(=O)(=O)Nc1cccc(-c2cnn(-c3cccnc3)c2)n1 [Compound 1, N-{6-[1-(Pyridin-3-yl)-1H-pyrazol-4-yl]pyridin-2-yl}methanesulphonamide]
Myzus persicae
  pest or weed control at 500 g/ha: 80%
[1]; pH 3.4, log P (HCOOH)
  chromatographic logP: 1.26
[1]; pH 3.4, logP (HCOOH)
  chromatographic logP: 1.26

## CN(C)S(=O)(=O)NC(=O)c1cccc(-c2cnc(-c3cncc(F)c3)s2)n1 [Compound 53]
Myzus persicae
  pest or weed control at 500 g/ha: 100%
[1]; pH 3.4, logP (HCOOH)
  chromatographic logP: 2.54

## CS(=O)(=O)NC(=O)c1cccc(-c2cnc(-c3cncnc3)s2)n1 [Compound 8]
Myzus persicae
  pest or weed control at 500 g/ha: 100%
[1]; [3]
  chromatographic logP: 1.48

## CCN(CC)S(=O)(=O)NC(=O)c1cccc(-c2cnn(-c3cncc(F)c3)c2)n1 [Compound 39]
Myzus persicae
  pest or weed control at 500 g/ha: 100%
[1]; pH 3.4, logP (HCOOH)
  chromatographic logP: 2.98

## O=C(NS(=O)(=O)c1ccccc1)c1cccc(-c2cnn(-c3cncnc3)c2)n1 [Compound 23]
Myzus persicae
  pest or weed control at 500 g/ha: 90%
[1]; [3]
  chromatographic logP: 2.24

## CCS(=O)(=O)NC(=O)c1cccc(-c2cnc(-c3cncc(F)c3)s2)n1 [Compound 18]
Myzus persicae
  pest or weed control at 500 g/ha: 100%
[1]; [3]
  chromatographic logP: 2.33

## CN(C(=O)c1cccc(-c2cnc(-c3cncc(F)c3)s2)n1)S(C)(=O)=O [Compound 52]
Myzus persicae
  pest or weed control at 500 g/ha: 100%
[1]; [3]
  chromatographic logP: 2.27

## COCCS(=O)(=O)NC(=O)c1cccc(-c2cnc(-c3cncc(F)c3)s2)n1 [Compound 55]
Myzus persicae
  pest or weed control at 500 g/ha: 100%
[1]; [3]
  chromatographic logP: 2.19

## COC(=N)c1cccc(-c2cnc(-c3cccnc3)s2)n1 [Compound 49]
[2]
  efficacy in %: 100%

## CN(C)S(=O)(=O)NC(=O)c1cccc(-c2cnc(-c3cncnc3)s2)n1 [Compound 62]
Myzus persicae
  pest or weed control at 500 g/ha: 80%
[1]; [3]
  chromatographic logP: 1.9

## O=C(NS(=O)(=O)c1ccccc1)c1cccc(-c2cnn(-c3cncc(F)c3)c2)n1 [Compound 31]
Myzus persicae
  pest or weed control at 500 g/ha: 100%
[1]; pH 3.4, logP (HCOOH)
  chromatographic logP: 2.82

## Cc1nc(-c2cncc(F)c2)sc1-c1cc(C(=O)NS(C)(=O)=O)n(C)n1 [Compound 63, 3-[2-(5-Fluoropyridin-3-yl)-4-methyl-1,3-thiazol-5-yl]-1-methyl-N-(methylsulphonyl)-1H-pyrazole-5-carboxamide]
Myzus persicae
  pest or weed control at 500 g/ha: 80%
[1]; [4]
  chromatographic logP: 2.04
[1]; [3]
  chromatographic logP: 2.04

## COCCS(=O)(=O)Nc1cccc(-c2cnn(-c3cccnc3)c2)n1 [Compound 10]
Myzus persicae
  pest or weed control at 500 g/ha: 80%
[1]; pH 3.4, logP (HCOOH)
  chromatographic logP: 1.43

## CC(C)N(C)S(=O)(=O)NC(=O)c1cccc(-c2cnc(-c3cncc(F)c3)s2)n1 [Compound 60]
Myzus persicae
  pest or weed control at 500 g/ha: 100%
[1]; pH 3.4, logP (HCOOH)
  chromatographic logP: 3.09

## COC(=N)c1cccc(-c2cnc(-c3cncc(F)c3)s2)n1 [Compound 50, Methyl 6-[2-(5-fluoropyridin-3-yl)-1,3-thiazol-5-yl]pyridine-2-carboximidoate]
[1]; [4]
  chromatographic logP: 0.9
[2]
  efficacy in %: 100%

## CS(=O)(=O)NC(=O)c1cccc(-c2cnc(-c3cccnc3)s2)n1 [Compound 12]
Myzus persicae
  pest or weed control at 500 g/ha: 100%
[1]; pH 3.4, logP (HCOOH)
  chromatographic logP: 1.56

## O=C(NS(=O)(=O)C1CC1)c1cccc(-c2cnn(-c3cccnc3)c2)n1 [Compound 30]
Myzus persicae
  pest or weed control at 500 g/ha: 100%
[1]; pH 3.4, logP (HCOOH)
  chromatographic logP: 1.85

## CN(C)S(=O)(=O)NC(=O)c1cccc(-c2cnn(-c3cccnc3)c2)n1 [Compound 27]
Myzus persicae
  pest or weed control at 500 g/ha: 100%
[1]; [3]
  chromatographic logP: 1.96

## O=C(NS(=O)(=O)C1CC1)c1cccc(-c2nnc(-c3cncc(F)c3)s2)n1 [Compound 71]
Myzus persicae
  pest or weed control at 500 g/ha: 100%
[1]; pH 3.4, logP (HCOOH)
  chromatographic logP: 2.14

## CCS(=O)(=O)NC(=O)c1cccc(-c2nnc(-c3cncc(F)c3)s2)n1 [Compound 70]
Meloidogyne incognita
  efficacy in % (nematicidal action by gall formation): 100%
Myzus persicae
  pest or weed control at 500 g/ha: 100%
[1]; [3]
  chromatographic logP: 2.07

## O=C(NS(=O)(=O)N1CCCCC1)c1cccc(-c2cnc(-c3cncc(F)c3)s2)n1 [Compound 54]
Myzus persicae
  pest or weed control at 500 g/ha: 100%
[1]; [3]
  chromatographic logP: 3.29

## CN(C)S(=O)(=O)NC(=O)c1cccc(-c2cnn(-c3cncc(F)c3)c2)n1 [Compound 16]
Myzus persicae
  pest or weed control at 500 g/ha: 100%
[1]; [3]
  chromatographic logP: 2.42

## CS(=O)(=O)NC(=O)c1cccc(-c2cnc(-c3cncc(F)c3)s2)n1 [Compound 9]
Myzus persicae
  pest or weed control at 500 g/ha: 100%
[1]; pH 3.4, logP (HCOOH)
  chromatographic logP: 2.05

## CC(C)S(=O)(=O)NC(=O)c1cccc(-c2cnc(-c3cncc(F)c3)s2)n1 [Compound 20]
Myzus persicae
  pest or weed control at 500 g/ha: 100%
[1]; [3]
  chromatographic logP: 2.61

## CS(=O)(=O)NC(=O)c1cccc(-c2cnc(-c3cncc(Cl)c3)s2)n1 [Compound 17]
Myzus persicae
  pest or weed control at 500 g/ha: 100%
[1]; [3]
  chromatographic logP: 2.4
